The values that follow come from ChEMBL document CHEMBL1201862, “PubChem BioAssay data set” (2004).

The subject of test [1] is HEK293. The test can be described thus: NOD1 signaling inhibitors, primary screen, cell-based, luminescence, uHTS (AID 1578). It counts as functional. To be noted: Homo sapiens.
For test [2], the system named is HEK293. The test is described as follows: cells. It counts as functional, cell-based. To be noted: Homo sapiens.
For test [3], the system named is HEK293. The test is described as follows: cells. It counts as functional, cell-based. To be noted: Homo sapiens. The source holds these as a separate data set.
Test [4] deals with HEK293. The test can be described thus: NOD2 signaling inhibitors in MDP-stimulated cells, cell-based, uHTS, luminescence (AID 2001). It counts as functional. Particulars: Homo sapiens.
Test [5] concerns the target T1, Tumor necrosis factor (Homo sapiens, UniProt P01375). The test is described as follows: TNFa-triggered NF-kB activation inhibitors, SAR follow-up, cell-based, revised (AID 2337). It counts as functional.
The target of test [6] is T2, Nucleotide-binding oligomerization domain-containing protein 1 (Homo sapiens, UniProt Q9Y239). The test can be described thus: NOD1 signaling inhibitors, SAR follow-up, revised (AID 2333). It counts as functional.
T2 sequence (Q9Y239 whole entry, the tested form may be a part): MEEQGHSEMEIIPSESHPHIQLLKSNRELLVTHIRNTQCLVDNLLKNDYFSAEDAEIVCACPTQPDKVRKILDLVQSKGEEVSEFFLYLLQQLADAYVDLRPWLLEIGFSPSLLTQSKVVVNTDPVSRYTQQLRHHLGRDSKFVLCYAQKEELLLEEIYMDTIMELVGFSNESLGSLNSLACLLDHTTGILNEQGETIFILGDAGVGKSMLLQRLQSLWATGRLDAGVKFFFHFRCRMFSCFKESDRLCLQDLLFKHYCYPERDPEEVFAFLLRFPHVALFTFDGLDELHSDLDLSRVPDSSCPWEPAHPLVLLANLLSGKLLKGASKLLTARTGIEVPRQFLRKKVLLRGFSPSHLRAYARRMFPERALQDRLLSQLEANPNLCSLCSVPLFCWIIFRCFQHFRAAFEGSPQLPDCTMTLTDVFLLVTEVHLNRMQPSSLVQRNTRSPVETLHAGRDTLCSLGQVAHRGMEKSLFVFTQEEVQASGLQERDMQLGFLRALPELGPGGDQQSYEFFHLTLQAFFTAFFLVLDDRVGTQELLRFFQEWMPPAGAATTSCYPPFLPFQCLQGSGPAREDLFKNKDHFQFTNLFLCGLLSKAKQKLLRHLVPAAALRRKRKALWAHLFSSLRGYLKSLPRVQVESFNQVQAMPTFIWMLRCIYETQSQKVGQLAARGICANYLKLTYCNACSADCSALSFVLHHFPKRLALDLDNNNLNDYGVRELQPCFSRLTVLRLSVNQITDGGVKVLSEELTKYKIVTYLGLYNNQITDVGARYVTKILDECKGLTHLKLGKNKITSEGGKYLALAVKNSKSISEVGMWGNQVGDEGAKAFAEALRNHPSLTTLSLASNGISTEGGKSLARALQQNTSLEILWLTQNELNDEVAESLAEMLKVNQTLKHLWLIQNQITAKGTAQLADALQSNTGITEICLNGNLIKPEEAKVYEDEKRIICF
The subject of test [7] is HEK293. The test can be described thus: cells. To be noted: Homo sapiens.
Test [8] deals with T2, Nucleotide-binding oligomerization domain-containing protein 1. The test can be described thus: SAR analysis of compounds that inhibit NOD1 - Set 3. [Related pubchem assays (depositor defined):AID1566, AID1575, AID1578, AID1849, AID1852, AID2333, AID2335, AID2466]. It counts as functional.
Test [9] deals with T1, Tumor necrosis factor. The test can be described thus: TNFa-triggered NF-kB activation inhibitors, SAR follow-up, cell-based, set 3 (AID 2801). It counts as functional.
The test system of test [10] is HEK293. The test can be described thus: SAR analysis of compounds that are cytotoxic to HEK293 - Set 3. [Related pubchem assays (depositor defined):AID1575, AID1578, AID1848, AID1849, AID2001, AID2333, AID2334, AID2335, AID2337, AID2469]. It counts as functional, cell-based. To be noted: Homo sapiens.
The target of test [11] is Nucleotide-binding oligomerization domain-containing protein 2 (Homo sapiens, UniProt Q9HC29). The test can be described thus: NOD2 signaling inhibitors, analog potency, SAR follow-up, cell-based, set 3 (AID 2799). It counts as functional.
The target of test [12] is SUMO E1/E2 (Homo sapiens, UniProt P63279+Q9UBE0+Q9UBT2). The test can be described thus: SAR analysis of SUMOylation using HTRF in an in-Vitro dose response assay. [Related pubchem assays (depositor defined):AID2006, AID2011, AID2018, AID2069, AID2658]. It counts as functional. (In general: In TR-FRET formats the signal depends on donor and acceptor labels being close together.)

In test [13] the target is T3, Voltage-gated N-type calcium channel alpha-1B subunit/Amyloid beta A4 precursor protein-binding family A member 1 (Homo sapiens, UniProt Q00975+Q02410). The test is described as follows: disruptors of Mint-PDZ/N-type channel peptide interaction – biochemical, HTRF, set 2, SAR follow-up (AID 434980). It counts as functional.
T3 sequence (Q00975 whole entry): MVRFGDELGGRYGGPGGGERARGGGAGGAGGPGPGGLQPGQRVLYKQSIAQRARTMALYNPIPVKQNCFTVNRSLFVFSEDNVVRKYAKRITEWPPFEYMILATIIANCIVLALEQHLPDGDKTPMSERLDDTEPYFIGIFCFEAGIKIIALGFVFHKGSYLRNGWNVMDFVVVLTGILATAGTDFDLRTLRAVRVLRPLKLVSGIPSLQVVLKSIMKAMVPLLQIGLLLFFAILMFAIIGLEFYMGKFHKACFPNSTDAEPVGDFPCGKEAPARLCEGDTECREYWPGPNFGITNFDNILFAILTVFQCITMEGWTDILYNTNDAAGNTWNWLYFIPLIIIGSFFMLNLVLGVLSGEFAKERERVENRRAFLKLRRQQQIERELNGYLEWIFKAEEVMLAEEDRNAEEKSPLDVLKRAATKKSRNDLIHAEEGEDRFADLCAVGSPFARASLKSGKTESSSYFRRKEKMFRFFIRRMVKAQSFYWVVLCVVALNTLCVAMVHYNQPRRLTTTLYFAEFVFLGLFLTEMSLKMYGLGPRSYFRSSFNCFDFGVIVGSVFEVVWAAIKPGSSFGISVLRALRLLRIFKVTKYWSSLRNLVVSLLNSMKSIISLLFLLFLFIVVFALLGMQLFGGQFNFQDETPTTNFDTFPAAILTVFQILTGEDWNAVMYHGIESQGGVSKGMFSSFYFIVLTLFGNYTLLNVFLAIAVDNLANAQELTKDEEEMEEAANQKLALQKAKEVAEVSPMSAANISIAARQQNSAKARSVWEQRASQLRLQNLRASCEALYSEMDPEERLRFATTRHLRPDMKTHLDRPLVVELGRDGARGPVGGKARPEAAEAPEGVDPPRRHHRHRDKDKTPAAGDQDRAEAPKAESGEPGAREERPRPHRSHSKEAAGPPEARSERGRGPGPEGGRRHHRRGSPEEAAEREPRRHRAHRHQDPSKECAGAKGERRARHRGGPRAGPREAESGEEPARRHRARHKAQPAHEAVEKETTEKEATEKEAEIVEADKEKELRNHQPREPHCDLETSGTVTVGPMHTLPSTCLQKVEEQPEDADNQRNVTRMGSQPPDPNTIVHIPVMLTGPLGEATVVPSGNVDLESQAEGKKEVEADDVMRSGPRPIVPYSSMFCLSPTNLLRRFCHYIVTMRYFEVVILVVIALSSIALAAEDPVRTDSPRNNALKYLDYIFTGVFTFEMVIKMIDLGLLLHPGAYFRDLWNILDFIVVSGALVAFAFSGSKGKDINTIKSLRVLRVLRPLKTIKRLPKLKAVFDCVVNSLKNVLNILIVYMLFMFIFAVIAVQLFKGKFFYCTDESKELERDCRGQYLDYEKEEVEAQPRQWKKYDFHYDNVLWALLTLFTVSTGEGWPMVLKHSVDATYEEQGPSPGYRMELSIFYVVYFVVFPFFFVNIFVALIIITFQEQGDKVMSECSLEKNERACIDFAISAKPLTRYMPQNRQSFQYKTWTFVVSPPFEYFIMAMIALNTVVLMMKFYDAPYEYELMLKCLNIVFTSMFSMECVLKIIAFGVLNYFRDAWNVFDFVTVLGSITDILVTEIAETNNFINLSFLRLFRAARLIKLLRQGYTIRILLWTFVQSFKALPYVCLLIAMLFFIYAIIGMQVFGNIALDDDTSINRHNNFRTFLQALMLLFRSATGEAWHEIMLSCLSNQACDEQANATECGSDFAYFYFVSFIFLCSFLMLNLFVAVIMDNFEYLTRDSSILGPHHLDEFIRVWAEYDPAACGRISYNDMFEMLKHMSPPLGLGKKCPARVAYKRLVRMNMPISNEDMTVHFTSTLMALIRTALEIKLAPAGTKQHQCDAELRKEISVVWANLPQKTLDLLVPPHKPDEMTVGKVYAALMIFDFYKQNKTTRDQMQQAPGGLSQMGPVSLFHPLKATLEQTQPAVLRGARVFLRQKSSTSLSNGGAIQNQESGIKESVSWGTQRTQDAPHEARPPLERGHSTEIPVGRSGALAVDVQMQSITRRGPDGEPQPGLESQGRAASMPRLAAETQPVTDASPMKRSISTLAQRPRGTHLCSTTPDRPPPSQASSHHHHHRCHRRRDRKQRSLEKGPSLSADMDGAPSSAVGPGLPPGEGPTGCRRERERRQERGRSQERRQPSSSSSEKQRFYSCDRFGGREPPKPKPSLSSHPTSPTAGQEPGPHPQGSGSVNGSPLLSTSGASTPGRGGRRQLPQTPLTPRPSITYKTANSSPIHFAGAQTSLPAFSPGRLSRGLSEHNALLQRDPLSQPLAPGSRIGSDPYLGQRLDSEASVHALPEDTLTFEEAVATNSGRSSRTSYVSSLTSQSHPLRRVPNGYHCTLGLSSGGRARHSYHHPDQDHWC
T3 sequence (Q02410 whole entry): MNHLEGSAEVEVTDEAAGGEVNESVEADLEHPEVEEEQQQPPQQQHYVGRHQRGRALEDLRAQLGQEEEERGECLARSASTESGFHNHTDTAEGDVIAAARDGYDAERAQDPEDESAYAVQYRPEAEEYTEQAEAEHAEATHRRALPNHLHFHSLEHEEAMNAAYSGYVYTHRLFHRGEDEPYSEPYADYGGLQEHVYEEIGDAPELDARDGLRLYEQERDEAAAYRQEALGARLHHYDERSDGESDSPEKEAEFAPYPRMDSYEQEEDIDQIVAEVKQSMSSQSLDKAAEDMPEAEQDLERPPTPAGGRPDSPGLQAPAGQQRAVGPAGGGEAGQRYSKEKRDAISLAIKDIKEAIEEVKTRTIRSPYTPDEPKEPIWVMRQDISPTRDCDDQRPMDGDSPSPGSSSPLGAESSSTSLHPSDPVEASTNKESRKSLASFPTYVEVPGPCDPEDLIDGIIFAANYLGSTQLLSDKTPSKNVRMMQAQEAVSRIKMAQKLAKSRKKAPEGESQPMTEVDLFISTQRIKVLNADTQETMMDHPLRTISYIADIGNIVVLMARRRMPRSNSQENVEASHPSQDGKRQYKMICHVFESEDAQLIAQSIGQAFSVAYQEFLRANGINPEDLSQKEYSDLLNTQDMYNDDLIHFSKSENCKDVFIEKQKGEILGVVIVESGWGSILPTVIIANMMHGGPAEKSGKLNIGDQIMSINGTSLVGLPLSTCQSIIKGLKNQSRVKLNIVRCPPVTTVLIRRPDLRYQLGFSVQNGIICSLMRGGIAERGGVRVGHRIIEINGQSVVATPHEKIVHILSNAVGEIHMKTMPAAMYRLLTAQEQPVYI
Test [14] deals with T3, Voltage-gated N-type calcium channel alpha-1B subunit/Amyloid beta A4 precursor protein-binding family A member 1. The test can be described thus: disruptors of Mint-PDZ/N-type channel peptide interaction – biochemical, HTRF, SAR follow-up (AID 2489). It counts as functional.
Test [15] has as its target Voltage-dependent T-type calcium channel subunit alpha-1H (Homo sapiens, UniProt O95180). The test is described as follows: Cav3.2 T-type channel inhibitors, synthesized analogs, SAR follow-up, cell-based, synthetic library set 2, HEK293 HH8, Fluo-4 (AID 493023). It counts as functional.

SMILES strings stand for the structures. The source made the active and inactive calls. For most assays here, no stated cut-off is given here; in the data, actives have a measured IC50 and inactives only a lower limit.

T1 sequence (P01375 whole entry, the tested form may be a part): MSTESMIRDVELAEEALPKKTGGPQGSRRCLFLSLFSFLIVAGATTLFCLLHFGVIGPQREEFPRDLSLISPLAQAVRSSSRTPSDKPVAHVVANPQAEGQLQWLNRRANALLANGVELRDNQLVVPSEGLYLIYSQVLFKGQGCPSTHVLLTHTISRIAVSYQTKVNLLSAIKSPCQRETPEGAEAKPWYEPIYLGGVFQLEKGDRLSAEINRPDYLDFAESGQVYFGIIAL

For orientation: EC50 means the concentration at which the effect is half-maximal. A word on the IC50: it is the concentration that inhibits the measured activity by half. On to `O=C(Nc1sc2c(c1C(=O)O)CCCC2)c1ccc(Cl)cc1`, for which the EC50 in test [1] was 6.58 µM (active). The IC50 in test [2] was > 20 µM (inactive); in [3] it was > 20 µM (inactive); in [4] it was 16 µM (inactive); in test [5], 13.4 µM (active); in test [6], 2.86 µM (active); in [7], > 20 µM (inactive).
On to `CN(C(=O)c1ccccc1)C(c1ccccc1)c1c[nH]c2ccccc12` (stereo not given), for which the IC50 was > 20 µM (inactive) in [8], > 20 µM (inactive) in test [9], > 20 µM (inactive) in test [10] and 12.4 µM (active) in [11].
For the compound `COc1ccccc1CNC(=O)CCOC(=O)c1cc(-c2ccco2)nc2ccccc12`, the IC50 is 38.6 µM (active) in test [12], 23 µM (active) in [13] and > 56.8 µM (inactive) in test [14].
Turning to `O=C(COc1ccc(F)c(Cl)c1)N[C@H]1CCCN(Cc2ccccc2)C1`, in [15], the EC50 is 10 µM (active).
